The values below come from patent US8778973B2, “Alkene oxindole derivatives” (Hoffmann-La Roche Inc., priority 2009, dated 2014).

In this test the test system is Recombinant human AMPK proteins (α1β1γ1, α2β1γ1, α1(1-335), α1(1-394) or α2(1-394)). Kind of test: Scintillation Proximity Assay (SPA) of AMPK activation. As to conditions: activator concentration for 50% of maximal enzyme activity; 50 nM recombinant AMPK, 2 μM ATP, 30° C., 2 hr. It is filed as biochemical. The gist of the method:
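Recombinant human AMPK (α1β1γ1, α2β1γ1 or α-subunit truncations), fully pre-phosphorylated, was used at 50 nM with 2 μM biotin-SAMS, 2 μM ATP plus [γ-^33P]ATP in Tris-HCl pH 7.5, MgCl2, DTT, 2 hr at 30° C. Product was captured on streptavidin SPA beads. EC50 was the activator concentration giving 50% of maximal activity.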

As to `O=C(O)c1cccc(CN2C(=O)/C(=C(\c3ccccc3)c3cccc(C(F)(F)F)c3)c3ccccc32)c1` [Example 66, 3-{2-Oxo-3-[1-phenyl-1-(3-trifluoromethyl-phenyl)-meth-(E)-ylidene]-2,3-dihydro-indol-1-ylmethyl}-benzoic acid], the EC50 came out at 2.44 µM.

On to `NS(=O)(=O)c1ccc(/C(=C2/C(=O)N(Cc3cccc(C(=O)O)c3)c3ccccc32)c2ccccc2)cc1` [Example 67, 3-{2-Oxo-3-[1-phenyl-1-(4-sulfamoyl-phenyl)-meth-(E)-ylidene]-2,3-dihydro-indol-1-ylmethyl}-benzoic acid], for which the EC50 came to 1.27 µM.

As to `O=C(O)c1cccc(CN2C(=O)/C(=C(/c3ccccc3)c3ccc(Cl)cc3)c3ccccc32)c1` [Example 68, 3-{3-[1-(4-Chloro-phenyl)-1-phenyl-meth-(Z)-ylidene]-2-oxo-2,3-dihydro-indol-1-ylmethyl}-benzoic acid], the EC50 came out at 2.12 µM.

`O=C(O)c1cccc(CN2C(=O)/C(=C(\c3ccc(Cl)cc3)c3ccc(C(F)(F)F)cc3)c3ccccc32)c1` [Example 69, 3-{3-[1-(4-Chloro-phenyl)-1-(4-trifluoromethyl-phenyl)-meth-(Z)-ylidene]-2-oxo-2,3-dihydro-indol-1-ylmethyl}-benzoic acid]: the EC50 was found to be 2.2 µM.

On to `O=C(O)COc1ccc(CN2C(=O)/C(=C(\c3ccccc3)c3ccc(Cl)cc3)c3ccccc32)cc1` [Example 70, (4-{3-[1-(4-Chloro-phenyl)-1-phenyl-meth-(E)-ylidene]-2-oxo-2,3-dihydro-indol-1-ylmethyl}-phenoxy)-acetic acid], for which the EC50 worked out at 4.96 µM.

Consider `CC(C)c1ccc(/C(=C2/C(=O)N(Cc3cccc(C(=O)O)c3)c3ccccc32)c2ccccc2)cc1` [Example 71, 3-{3-[1-(4-Isopropyl-phenyl)-1-phenyl-meth-(E)-ylidene]-2-oxo-2,3-dihydro-indol-1-ylmethyl}-benzoic acid], for which the EC50 was 4.02 µM.

With `O=C(O)c1cccc(CN2C(=O)/C(=C(\c3ccccc3)c3ccc(F)c(F)c3)c3ccccc32)c1` [Example 72, 3-{3-[1-(3,4-Difluoro-phenyl)-1-phenyl-meth-(E)-ylidene]-2-oxo-2,3-dihydro-indol-1-ylmethyl}-benzoic acid], the EC50 amounted to 3.3 µM.

For the compound `O=C(O)c1cccc(CN2C(=O)/C(=C(\c3ccccc3)c3ccc(Cl)cc3)c3cccc(F)c32)c1` [Example 73, 3-{3-[1-(4-Chloro-phenyl)-1-phenyl-meth-(E)-ylidene]-7-fluoro-2-oxo-2,3-dihydro-indol-1-ylmethyl}-benzoic acid], the EC50 amounted to 5.14 µM.

For the compound `O=C(O)c1cccc(CN2C(=O)/C(=C(\c3ccccc3)c3ccc(Cl)cc3)c3cc(Cl)ccc32)c1` [Example 74, 3-{5-Chloro-3-[1-(4-chloro-phenyl)-1-phenyl-meth-(E)-ylidene]-2-oxo-2,3-dihydro-indol-1-ylmethyl}-benzoic acid], the 50% effective concentration (EC50) came to 3.17 µM.

With `O=C(O)c1cccc(CN2C(=O)/C(=C(\c3ccccc3)c3ccccc3Cl)c3ccccc32)c1` [Example 75, 3-{3-[1-(2-Chloro-phenyl)-1-phenyl-meth-(E)-ylidene]-2-oxo-2,3-dihydro-indol-1-ylmethyl}-benzoic acid], the EC50 is 1.84 µM.

Turning to `O=C(O)c1csc(CN2C(=O)/C(=C(\c3ccccc3)c3ccc(Cl)cc3)c3ccccc32)n1` [Example 76, 2-{3-[1-(4-Chloro-phenyl)-1-phenyl-meth-(E)-ylidene]-2-oxo-2,3-dihydro-indol-1-ylmethyl}-thiazole-4-carboxylic acid], the EC50 is 5.14 µM.

For the compound `COC(=O)c1cccc(CN2C(=O)/C(=C(/CCC(C)C)c3ccccc3)c3ccccc32)c1` [Example 77, 3-[3-(4-Methyl-1-phenyl-pent-(Z)-ylidene)-2-oxo-2,3-dihydro-indol-1-ylmethyl]-benzoic acid methyl ester], the EC50 was determined as 2.58 µM.

Turning to `COC(=O)c1cccc(CN2C(=O)/C(=C(/CC(C)(C)C)c3ccccc3)c3ccccc32)c1` [Example 78, 3-{3-[3,3-Dimethyl-1-phenyl-but-(Z)-ylidene]-2-oxo-2,3-dihydro-indol-1-ylmethyl}-benzoic acid methyl ester], the EC50 amounted to 1.6 µM.

For the compound `COC(=O)c1cccc(CN2C(=O)/C(=C(/Cc3ccc(Cl)cc3)c3ccccc3)c3ccccc32)c1` [Example 79, 3-{3-[2-(4-Chloro-phenyl)-1-phenyl-eth-(Z)-ylidene]-2-oxo-2,3-dihydro-indol-1-ylmethyl}-benzoic acid methyl ester], the EC50 worked out at 1.69 µM.

As for `COC(=O)c1cccc(CN2C(=O)/C(=C(\CC(C)(C)C)c3ccccc3)c3ccccc32)c1` [Example 80, 3-{3-[3,3-Dimethyl-1-phenyl-but-(E)-ylidene]-2-oxo-2,3-dihydro-indol-1-ylmethyl}-benzoic acid methyl ester], the EC50 was 5.8 µM.

In the case of `CC(C)CC/C(=C1/C(=O)N(Cc2cccc(C(=O)O)c2)c2ccccc21)c1ccccc1` [Example 81, 3-[3-(4-Methyl-1-phenyl-pent-(Z)-ylidene)-2-oxo-2,3-dihydro-indol-1-ylmethyl]-benzoic acid], the EC50 worked out at 4.74 µM.

For the compound `CC(C)/C(Cc1ccc(Cl)cc1)=C1\C(=O)N(Cc2cccc(C(=O)O)c2)c2ccccc21` [Example 82, 3-{3-[1-(4-Chloro-benzyl)-2-methyl-prop-(Z)-ylidene]-2-oxo-2,3-dihydro-indol-1-ylmethyl}-benzoic acid], the half-maximal effective concentration (EC50) was found to be 1.6 µM.

For the compound `COC(=O)c1cccc(CN2C(=O)/C(=C(/c3ccccc3)C(C)C)c3ccccc32)c1` [Example 85, 3-{3-[2-Methyl-1-phenyl-prop-(E)-ylidene]-2-oxo-2,3-dihydro-indol-1-ylmethyl}-benzoic acid methyl ester], the EC50 stood at 4.9 µM.

On to `COC(=O)c1cccc(CN2C(=O)/C(=C(/c3ccc(C(C)=O)cc3)C(C)C)c3ccccc32)c1` [Example 86, 3-{3-[1-(4-Acetyl-phenyl)-2-methyl-prop-(E)-ylidene]-2-oxo-2,3-dihydro-indol-1-ylmethyl}-benzoic acid methyl ester], for which the EC50 amounted to 7.88 µM.

With `COC(=O)c1cccc(CN2C(=O)/C(=C(/c3ccc(Cl)cc3)C3CCCCC3)c3ccccc32)c1` [Example 87, 3-{3-[1-(4-Chloro-phenyl)-1-cyclohexyl-meth-(E)-ylidene]-2-oxo-2,3-dihydro-indol-1-ylmethyl}-benzoic acid methyl ester], the EC50 is 10.7 µM.

For `COC(=O)c1cccc(CN2C(=O)/C(=C(/c3ccc(C(F)(F)F)cc3)C(C)C)c3ccccc32)c1` [Example 88, 3-{3-[2-Methyl-1-(4-trifluoromethyl-phenyl)-prop-(E)-ylidene]-2-oxo-2,3-dihydro-indol-1-ylmethyl}-benzoic acid methyl ester], the EC50 was determined as 2.59 µM.

As to `O=C(O)c1cccc(CN2C(=O)/C(=C(/c3ccc(Cl)cc3)C3CCCCC3)c3ccccc32)c1` [Example 104, 3-{3-[1-(4-Chloro-phenyl)-1-cyclohexyl-meth-(E)-ylidene]-2-oxo-2,3-dihydro-indol-1-ylmethyl}-benzoic acid], the EC50 is 4.63 µM.

Consider `CC(C)/C(=C1\C(=O)N(Cc2cccc(C(=O)O)c2)c2ccccc21)c1ccc(C(F)(F)F)cc1` [Example 105, 3-{3-[2-Methyl-1-(4-trifluoromethyl-phenyl)-prop-(E)-ylidene]-2-oxo-2,3-dihydro-indol-1-ylmethyl}-benzoic acid], for which the EC50 was 2.95 µM.

In the case of `CC(C)/C(=C1\C(=O)N(Cc2cccc(C(=O)O)c2)c2ccccc21)c1ccsc1` [Example 106, 3-{3-[2-Methyl-1-thiophen-3-yl-prop-(E)-ylidene]-2-oxo-2,3-dihydro-indol-1-ylmethyl}-benzoic acid], the EC50 came to 1.61 µM.

As to `CC(C)/C(=C1\C(=O)N(Cc2cccc(C(=O)O)c2)c2ccc(Cl)cc21)c1ccc(C(F)(F)F)cc1` [Example 107, 3-{5-Chloro-3-[2-methyl-1-(4-trifluoromethyl-phenyl)-prop-(E)-ylidene]-2-oxo-2,3-dihydro-indol-1-ylmethyl}-benzoic acid], the EC50 worked out at 0.66 µM.

`CC(=O)c1ccc(/C(=C2/C(=O)N(Cc3cccc(C(=O)O)c3)c3ccccc32)C(C)C)cc1` [Example 108, 3-{3-[1-(4-Acetyl-phenyl)-2-methyl-prop-(E)-ylidene]-2-oxo-2,3-dihydro-indol-1-ylmethyl}-benzoic acid]: the EC50 was found to be 3.25 µM.
